The values below come from PubChem BioAssay AID234 (DTP/NCI, 2004).

This test relates to C3AKF1 mice, hamster liver cystadenocarcinoma s.c., tumor weight T/C. The test can be described thus: NCI In Vivo Anticancer Drug Screen. Data for tumor model Cystadenocarcinoma, Liver (No. 1) (Hamster) (subcutaneous) in C3AKF1 (CHKRF1) mice. As to conditions: endpoint: mean tumor weight, higher = larger tumour. How it is done: The antitumor activity of compounds was measured in mice bearing transplantable tumors. Survival or tumor size were measured and the results are expressed as the measurement made in the treated group (T) divided by the measurement made in the vehicle treated control group (C). The tumor model used in this assay is Cystadenocarcinoma, Liver (No. 1) (Hamster) (subcutaneous) in C3AKF1 (CHKRF1) mice

Setting [1] is: dose: 15.0 mg/kg/injection, schedule: Q01DX010 (ip), vehicle: carboxymethylcellulose (CMC).
Setting [2] is: dose: 30.0 mg/kg/injection, schedule: Q01DX010 (ip), vehicle: carboxymethylcellulose (CMC).
[3] abbreviates: dose: 60.0 mg/kg/injection, schedule: Q01DX010 (ip), vehicle: carboxymethylcellulose (CMC).
The mark [4] stands for this setting: dose: 40.0 mg/kg/injection, schedule: Q01DX010 (ip), vehicle: carboxymethylcellulose (CMC).
[5] abbreviates: dose: 25.0 mg/kg/injection, schedule: Q01DX010 (ip), vehicle: carboxymethylcellulose (CMC).
[6] abbreviates: dose: 50.0 mg/kg/injection, schedule: Q01DX010 (ip), vehicle: carboxymethylcellulose (CMC).
Setting [7] is: dose: 100.0 mg/kg/injection, schedule: Q01DX010 (ip), vehicle: carboxymethylcellulose (CMC).
Where [8] appears, read: dose: 125.0 mg/kg/injection, schedule: Q01DX010 (ip), vehicle: carboxymethylcellulose (CMC).
[9] abbreviates: dose: 250.0 mg/kg/injection, schedule: Q01DX010 (ip), vehicle: carboxymethylcellulose (CMC).
The mark [10] stands for this setting: dose: 20.0 mg/kg/injection, schedule: Q01DX010 (ip), vehicle: carboxymethylcellulose (CMC).
Where [11] appears, read: dose: 62.0 mg/kg/injection, schedule: Q01DX010 (ip), vehicle: carboxymethylcellulose (CMC).
The mark [12] stands for this setting: dose: 37.5 mg/kg/injection, schedule: Q01DX010 (ip), vehicle: carboxymethylcellulose (CMC).

Where “and” joins values, the source holds several entries; their conditions need not be identical. Equal values may be shown once. Records with an inconclusive call do not appear.

Turning to `CC(=O)Nc1ccc(NC(=O)c2ccc([As](O)O)cc2)cc1`, the T/C was 60 % of control under setting [1]; 77 % of control under setting [2]; 92 % of control under setting [3]; 91 % of control (dose: 120.0 mg/kg/injection, schedule: Q01DX010 (ip), vehicle: carboxymethylcellulose (CMC)).
For `CSc1ncc(Br)c(Sc2nc(N)nc3nc[nH]c23)n1`, the T/C reads like this: (dose: 1.5 mg/kg/injection, schedule: Q01DX010 (ip), vehicle: carboxymethylcellulose (CMC)) 106 % of control; (dose: 3.0 mg/kg/injection, schedule: Q01DX010 (ip), vehicle: carboxymethylcellulose (CMC)) 117 % of control; (dose: 6.0 mg/kg/injection, schedule: Q01DX010 (ip), vehicle: carboxymethylcellulose (CMC)) 92 % of control; (dose: 12.0 mg/kg/injection, schedule: Q01DX010 (ip), vehicle: carboxymethylcellulose (CMC)) 74 % of control and 85 % of control and 92 % of control; (dose: 18.0 mg/kg/injection, schedule: Q01DX010 (ip), vehicle: carboxymethylcellulose (CMC)) 103 % of control; (dose: 27.0 mg/kg/injection, schedule: Q01DX010 (ip), vehicle: carboxymethylcellulose (CMC)) 77 % of control and 81 % of control. Further, under setting [4], the T/C is 65 % of control.
Turning to `CCN(CC)CC(C)Nc1ccc(C)c2sc3ccccc3c(=O)c12` (centres undefined), the T/C runs as follows: under setting [5], 98 % of control; under setting [6], 87 % of control; under setting [7], 76 % of control.
As to `COc1cc(OC)c(OC)cc1/C=C\c1ccnc2ccccc12`, the T/C is 104 % of control (dose: 63.0 mg/kg/injection, schedule: Q01DX010 (ip), vehicle: carboxymethylcellulose (CMC)); 97 % of control under setting [8]; 95 % of control under setting [9].
In the case of `COC(=S)SCN(CSC(=S)OC)c1ccccc1Cl`, the T/C (dose: 125.0 mg/kg/injection, schedule: Q01DX010 (ip), vehicle: saline) was 99 % of control; the T/C (dose: 250.0 mg/kg/injection, schedule: Q01DX010 (ip), vehicle: saline) is 84 % of control; the T/C (dose: 500.0 mg/kg/injection, schedule: Q01DX010 (ip), vehicle: saline) was 111 % of control.
In the case of `Clc1ccc(N2CCN(CCCN3CCN(c4cccc(Cl)c4)CC3)CC2)cc1`, the T/C (dose: 7.5 mg/kg/injection, schedule: Q01DX010 (ip), vehicle: carboxymethylcellulose (CMC)) was 71 % of control; the T/C under setting [1] was 62 % of control; the T/C under setting [2] is 52 % of control; the T/C under setting [3] is 69 % of control.
In the case of `O=C1NC2C(NC(=O)N2Cl)N1Cl` (centres undefined), the T/C (dose: 20.0 mg/kg/injection, schedule: Q01DX010 (ip), vehicle: saline) is 101 % of control.
Take `CCC[CH2][Sn]1([CH2]CCC)[O]C(=O)C[S]1`: the T/C is, setting by setting: (dose: 0.39 mg/kg/injection, schedule: Q01DX010 (ip), vehicle: saline) 113 % of control; (dose: 0.78 mg/kg/injection, schedule: Q01DX010 (ip), vehicle: saline) 110 % of control; (dose: 1.56 mg/kg/injection, schedule: Q01DX010 (ip), vehicle: saline) 66 % of control.
Regarding `CCc1c(CC(=O)O)c2cc(C)ccc2n1Cc1ccc(Cl)cc1`, the T/C is, setting by setting: under setting [6], 70 % of control; under setting [7], 96 % of control.
For `CS(=O)(=O)OCC(=O)NCCNC(=O)COS(C)(=O)=O`, the T/C reads like this: under setting [10], 105 % of control; under setting [4], 100 % of control.
For the compound `Cc1cc(N)c2cc(NC(=O)CCCCCCCCC(=O)Nc3ccc4nc(C)cc(N)c4c3)ccc2n1`, the T/C by setting is: (dose: 31.0 mg/kg/injection, schedule: Q01DX010 (ip), vehicle: carboxymethylcellulose (CMC)) 68 % of control; under setting [11], 50 % of control; under setting [8], 38 % of control.
As for `O=C(O)C1(NO)CCCC1`, the T/C is, setting by setting: (dose: 12.5 mg/kg/injection, schedule: Q01DX010 (ip), vehicle: carboxymethylcellulose (CMC)) 76 % of control; under setting [5], 108 % of control; under setting [6], 104 % of control; under setting [7], 80 % of control.
Take `Nc1nc(SCc2ccccc2)c2ncn(C3CCCC3)c2n1`: the T/C under setting [11] was 120 % of control; the T/C under setting [8] was 98 % of control; the T/C under setting [9] was 91 % of control; the T/C (dose: 500.0 mg/kg/injection, schedule: Q01DX010 (ip), vehicle: carboxymethylcellulose (CMC)) was 81 % of control.
`CCC(=O)NC1=C(N2CC2)C(=O)C(NC(=O)CC)=C(N2CC2)C1=O`: the T/C was 97 % of control (dose: 0.6 mg/kg/injection, schedule: Q01DX010 (ip), vehicle: saline) and 76 % of control (dose: 1.2 mg/kg/injection, schedule: Q01DX010 (ip), vehicle: saline).
Turning to `CC(C)(c1ccccc1)c1ccc(O)cc1`, the T/C under setting [12] is 79 % of control.
With `Clc1ncnc2c1ncn2C1CCCO1` (centres undefined), the T/C under setting [5] was 77 % of control; the T/C under setting [7] is 81 % of control and 93 % of control; the T/C (dose: 400.0 mg/kg/injection, schedule: Q01DX010 (ip), vehicle: carboxymethylcellulose (CMC)) is 52 % of control and 72 % of control; the T/C (dose: 800.0 mg/kg/injection, schedule: Q01DX010 (ip), vehicle: carboxymethylcellulose (CMC)) was 113 % of control.
On to `Cn1c(=O)c2[nH]c(CCCc3nc4c([nH]3)c(=O)n(C)c(=O)n4C)nc2n(C)c1=O`, for which the T/C was 101 % of control under setting [10] and 68 % of control under setting [4].
`CS(=O)(=O)OCCCOS(C)(=O)=O`: the T/C is 53 % of control under setting [1], 79 % of control under setting [2] and 53 % of control under setting [3].
Take `O=C1C=CC(=O)O1` (tested in a mixture with another compound): the T/C reads like this: (dose: 1.5 mg/kg/injection, schedule: Q#A X020 (ip), vehicle: carboxymethylcellulose (CMC)) 68 % of control; (dose: 3.5 mg/kg/injection, schedule: Q#A X020 (ip), vehicle: carboxymethylcellulose (CMC)) 82 % of control; (dose: 7.5 mg/kg/injection, schedule: Q#A X010 (ip), vehicle: carboxymethylcellulose (CMC)) 91 % of control; (dose: 62.5 mg/kg/injection, schedule: Q#A X010 (ip), vehicle: carboxymethylcellulose (CMC)) 77 % of control.
For the compound `O=c1[nH]c2cc(Cl)c(Cl)cc2o1`, the T/C runs as follows: (dose: 9.5 mg/kg/injection, schedule: Q01DX010 (ip), vehicle: carboxymethylcellulose (CMC)) 119 % of control; (dose: 19.0 mg/kg/injection, schedule: Q01DX010 (ip), vehicle: carboxymethylcellulose (CMC)) 104 % of control; under setting [12], 95 % of control and 107 % of control; (dose: 75.0 mg/kg/injection, schedule: Q01DX010 (ip), vehicle: carboxymethylcellulose (CMC)) 98 % of control.
With `C=CC(=O)NCNC(=O)C=C`, the T/C was 66 % of control (dose: 15.0 mg/kg/injection, schedule: Q01DX010 (ip), vehicle: saline); 119 % of control (dose: 30.0 mg/kg/injection, schedule: Q01DX010 (ip), vehicle: saline); 62 % of control (dose: 60.0 mg/kg/injection, schedule: Q01DX010 (ip), vehicle: saline); 77 % of control (dose: 120.0 mg/kg/injection, schedule: Q01DX010 (ip), vehicle: saline).
Consider `NC(=O)c1ccc(NC(=O)CCC(=O)Nc2ccc(C(N)=O)cn2)nc1`, for which the T/C reads like this: (dose: 1.25 mg/kg/injection, schedule: Q01DX010 (ip), vehicle: carboxymethylcellulose (CMC)) 92 % of control; (dose: 2.5 mg/kg/injection, schedule: Q01DX010 (ip), vehicle: carboxymethylcellulose (CMC)) 72 % of control.
